# Reference: patent publication US11179450B2, “Long chain antigen containing interepitope sequence that promotes antigen presentation to T cells” (MIE UNIVERSITY, priority 2013, dated 2021)
# Tested on: CD8+ T cells specific to MA p265, NY p81 and mERK2 9m
# Experiment: Specific CD8+ T cell induction by CHP/long chain peptide vaccines in mice, intracellular cytokine staining of spleen cells
# Type: in vivo, BALB/c mice
# Settings: FIG. 1; MEN antigens complexed with CHP, subcutaneous, CpG oligo DNA adjuvant; spleen cells one week after final administration
# Description: Long chain peptide antigens MEN, all containing three types of mouse CD8+ T cell epitope sequences (MA p265 (Sequence No. 27), NY p81 (Sequence No. 29), and mERK2 9m (Sequence No. 28)), were synthesized. The interepitope sequences between the respective epitopes were respectively six consecutive tyrosines (Y6) (Sequence No. 1), six consecutive glycines (G6) (Sequence No. 2), six consecutive prolines (P6) (Sequence No. 3), or six consecutive threonines (T6) (Sequence No. 4). Each long chain peptide antigen was complexed with cholesterol-modified pullulan (CHP), which is a type of delivery system, and administered as a vaccine to a mouse. In the process of administration, CpG oligo DNA was coadministered as an adjuvant. Spleen cells were collected one week after the final administration and the frequencies of CD8+ T cells specific to the respective epitope sequences were measured by an intracellular cytokine staining method.
# Long chain peptide antigens NME, all containing three types of mouse CD8+ T cell epitope sequences (MA p265 (Sequence No. 27), NY p81 (Sequence No. 29), and mERK2 9m (Sequence No. 28)), were synthesized. The antigens differ from the MEN sequences shown in FIG. 1 in the order of the three types of epitopes. The interepitope sequences between the respective epitopes were respectively six consecutive tyrosines (Y6) (Sequence No. 5), six consecutive glycines (G6) (Sequence No. 6), or six consecutive prolines (P6) (Sequence No. 7). Vaccines containing the respective long chain peptide antigens were administered to mice in the same manner as in FIG. 1 and the frequencies of CD8+ T cells specific to the respective epitope sequences were measured by the intracellular cytokine staining method.
# Long chain peptide antigens MEN, ENM, and NME, all containing three types of mouse CD8+ T cell epitope sequences (MA p265 (Sequence No. 27), NY p81 (Sequence No. 29), and mERK2 9m (Sequence No. 28)), were synthesized. MEN, ENM, and […] in the order of the three types of epitopes. The interepitope sequences between the respective epitopes were each six consecutive tyrosines (Y6) (Sequence Nos. 1, 5 and 8). Vaccines containing the respective long chain peptide antigens were administered to mice in the same manner as in FIG. 1 and the frequencies of CD8+ T cells specific to the respective epitope sequences were measured by the intracellular cytokine staining method.
# Each long chain peptide was dissolved in dimethyl sulfoxide (DMSO) at a concentration of 10 mg/mL. CHP was dissolved in 6 M urea-containing phosphate buffered saline (PBS) at a concentration of 10 mg/mL 1 mL (10 mg) of the long chain peptide solution and 20 mL (200 mg) of the CHP solution were mixed and left to stand at room temperature overnight in a dark place. The liquid mixture was transferred into a dialysis membrane (molecular weight cutoff: 3,500; Thermo Fisher Scientific, Inc.) and dialyzed for 2 hours to overnight at 4° C. against 0.6 M urea-containing PBS of a volume ratio of not less than 100 times as the dialysis outer solution. Dialysis was then performed for 2 hours to overnight at 4° C. against 0.06 M urea-containing PBS of a volume ratio of not less than 100 times as the dialysis outer solution. Dialysis was performed again for 2 hours to overnight at 4° C. against PBS of a volume ratio of not less than 100 times as the dialysis outer solution. The dialyzed inner solution was collected, filtered through a filtration sterilization filter of 0.45 μm or 0.22 μm pore size, and thereafter the UV absorption at 280 nm was measured to determine the final concentration of the long chain peptide from its molecular extinction coefficient.
# Each CHP/long chain peptide complex as the vaccine and the CpG oligo DNA as the adjuvant were administered at the same time to a mouse. Administration was performed by subcutaneous injection on the back of the mouse. […]
row,Sequence,induction of specific CD8+ T cells corresponding to all three types of epitopes
1,"SNPARYEFLTTTTTTQYIHSANVLTTTTTTRGPESRLL (Long chain peptide antigen, containing three types of mouse CD8+ T cell epitope sequences (MA p265, NY p81, and mERK2 9m)) [MEN(T6)]",clearly induced

# Same assay, conditions: FIG. 3; NME antigens (different epitope order) complexed with CHP, CpG oligo DNA
row,Sequence,induction of specific CD8+ T cells corresponding to all three types of epitopes
1,"RGPESRLLGGGGGGSNPARYEFLGGGGGGQYIHSANVL (Long chain peptide antigen, containing three types of mouse CD8+ T cell epitope sequences (MA p265, NY p81, and mERK2 9m)) [NME(G6)]",not observed for one or two types of epitopes among the three types of epitopes
2,"RGPESRLLPPPPPPSNPARYEFLPPPPPPQYIHSANVL (Long chain peptide antigen, containing three types of mouse CD8+ T cell epitope sequences (MA p265, NY p81, and mERK2 9m)) [NME(P6)]",not observed for one or two types of epitopes among the three types of epitopes
3,"RGPESRLLYYYYYYSNPARYEFLYYYYYYQYIHSANVL (Long chain peptide antigen, containing three types of mouse CD8+ T cell epitope sequences (MA p265, NY p81, and mERK2 9m)) [NME(Y6)]",clearly induced

# Same assay, conditions: FIG. 4; MEN, ENM, NME epitope orders, interepitope sequence fixed at Y6
row,Sequence,induction of specific CD8+ T cells corresponding to all three types of epitopes
1,"QYIHSANVLYYYYYYRGPESRLLYYYYYYSNPARYEFL (Long chain peptide antigen, containing three types of mouse CD8+ T cell epitope sequences (MA p265, NY p81, and mERK2 9m)) [ENM(Y6)]",clearly induced
2,"RGPESRLLYYYYYYSNPARYEFLYYYYYYQYIHSANVL (Long chain peptide antigen, containing three types of mouse CD8+ T cell epitope sequences (MA p265, NY p81, and mERK2 9m)) [NME(Y6)]",clearly induced

# Tested on: NY p157 specific CD8+ T cell clone 1G4 cells
# Experiment: Antigen presentation by LCL given CHP/long chain peptide vaccine, IFN-γ ELISPOT
# Type: cell-based, human
# Settings: FIG. 10; NMW peptide complexed with CHP given to LCL as antigen-presenting cells
# Description: Long chain peptide antigens NMW, all containing three types of human CD8+ T cell epitope sequences (NY p157:HLA-A0201 restrictive, MA4 p143:HLA-A2402 restrictive, and WT1: HLA-A2402 restrictive p235), were synthesized. The interepitode sequences between the respective epitopes were the six consecutive amino acids shown in FIG. 10, namely Sequence Nos. 18-26. Each long chain peptide antigen was complexed with cholesterol-modified pullulan (CHP), which is a type of delivery system, and administered in vitro as a vaccine to an immortalized human B cell line (LCL). Using these human B cells as the antigen-presenting cells, they were co-cultured with CD8+ T cell clone 1G4 cells specific to NY p157 and the activation of the 1G4 cells due to antigen presentation was measured by an IFN-γ ELISPOT method. As a positive control, LCL administered with an NY p157 short chain peptide was used as the antigen-presenting cells, and as a negative control, LCL without antigen added was used as the antigen-presenting cells.
# Cryostored LCL was rinsed with RPMI medium and suspended at 1.25×10^6/mL in X-VIVO15 medium. This was dispensed in 0.4 mL aliquots into polypropylene tubes, and 0.1 mL of a vaccine solution (0.1 mg/mL as peptide) was added to each tube. The cells were cultured for 24 hours at 37° C. in the presence of 5% CO2 and then used as antigen-presenting cells.
# 75 μL aliquots of anti-IFN-γ antibody for capture, diluted to an appropriate concentration, were dispensed into a 96-well plate (Millipore Corp., Multiscreen HA, MAHAS4510) specially designed for ELISPOT and left to stand overnight at 4° C. After discarding the liquid and rinsing with RPMI medium, 100 μL aliquots of RPMI medium containing 10% fetal bovine serum were dispensed and the plate was left to stand for not less than 1 hour at 37° C. The liquid was discarded, and the LCL prepared in (9) or (10) was adjusted to 5×10^4 cells/100 μL/well and added to each well. The cryostored CD8^+ T cell clones were thawed, rinsed, adjusted to 5×10^5/mL with RPMI medium, and thereafter added in 0.1 mL aliquots to each well. After culturing for 24 hours at 37° C. in the presence of 5% CO2, the liquid was discarded and the plate was rinsed well with phosphate buffered saline containing 0.05% Tween 20 (PBS-T). A biotin-labeled IFN-γ antibody for detection was diluted to an appropriate concentration and dispensed in 0.1 mL aliquots into each well. After letting stand overnight at 4° C., the plate was rinsed well with PBS-T, and an alkaline phosphatase-labeled streptavidin diluted to an appropriate concentration was added in 0.1 mL aliquots. After incubating for 1 hour at room temperature, the plate was rinsed well with PBS-T. A coloring solution was added in 0.1 mL aliquots and allowed to react for 5 minutes to 30 minutes at room temperature. When the formation of spots was observed, the reaction was stopped by rinsing with water.
row,Sequence,activation of 1G4 cells
1,"SLLMWITQCNNNNNNNYKRCFPVINNNNNNCMTWNQML (SLLMWITQCNNNNNNNYKRCFPVINNNNNNCMTWNQMNL; Long chain peptide antigen, containing three types of human CD8+ T cell recognition epitope sequences (NY p157, MA4 p143, and WT1 p235)) [NMW(N6)]",clearly observed
2,"SLLMWITQCPPPPPPNYKRCFPVIPPPPPPCMTWNQMNL (Long chain peptide antigen, containing three types of human CD8+ T cell recognition epitope sequences (NY p157, MA4 p143, and WT1 p235)) [NMW(P6)]",not clearly confirmed
3,"SLLMWITQCSSSSSSNYKRCFPVISSSSSSCMTWNQMNL (Long chain peptide antigen, containing three types of human CD8+ T cell recognition epitope sequences (NY p157, MA4 p143, and WT1 p235)) [NMW(S6)]",clearly observed
4,"SLLMWITQCAAAAAANYKRCFPVIAAAAAACMTWNQMNL (Long chain peptide antigen, containing three types of human CD8+ T cell recognition epitope sequences (NY p157, MA4 p143, and WT1 p235)) [NMW(A6)]",clearly observed
5,"SLLMWITQCQQQQQQNYKRCFPVIQQQQQQCMTWNQMNL (Long chain peptide antigen, containing three types of human CD8+ T cell recognition epitope sequences (NY p157, MA4 p143, and WT1 p235)) [NMW(Q6)]",clearly observed
6,"SLLMWITQCYYYYYYNYKRCFPVIYYYYYYCMTWNQMNL (Long chain peptide antigen, containing three types of human CD8+ T cell recognition epitope sequences (NY p157, MA4 p143, and WT1 p235)) [NMW(Y6)]",clearly confirmed
7,"SLLMWITQCGGGGGGNYKRCFPVIGGGGGGCMTWNQMNL (Long chain peptide antigen, containing three types of human CD8+ T cell recognition epitope sequences (NY p157, MA4 p143, and WT1 p235)) [NMW(G6)]",not clearly confirmed
